The text below walks through data of ChEMBL document CHEMBL5465560, “Selectivity Literature for EUbOPEN Chemogenomic Library” (2024).

Assay [1] concerns the target ALK tyrosine kinase receptor (Homo sapiens, UniProt Q9UM73). As to conditions: at 10 µM.
Assay [2] deals with Mitogen-activated protein kinase 3 (Homo sapiens, UniProt P27361). Kind of assay: Selectivity interaction (ActivX KiNativ screen (kinase selectivity in THP-1 cell lysates)) EUB0000639a MAPK3. The assay is classed as subcellular. As to conditions: lysate.
Mitogen-activated protein kinase 3, sequence (P27361 whole entry): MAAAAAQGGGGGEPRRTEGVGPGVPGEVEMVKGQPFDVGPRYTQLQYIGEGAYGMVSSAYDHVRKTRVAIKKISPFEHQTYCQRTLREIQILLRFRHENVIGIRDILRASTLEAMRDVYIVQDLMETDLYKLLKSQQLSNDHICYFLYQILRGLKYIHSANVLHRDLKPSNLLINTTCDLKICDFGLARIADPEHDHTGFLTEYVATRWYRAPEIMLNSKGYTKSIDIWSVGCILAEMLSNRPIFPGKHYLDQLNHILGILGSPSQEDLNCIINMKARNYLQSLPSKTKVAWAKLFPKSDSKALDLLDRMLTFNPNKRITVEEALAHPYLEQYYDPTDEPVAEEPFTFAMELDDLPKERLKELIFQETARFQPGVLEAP
The target in assay [3] is Receptor tyrosine-protein kinase erbB-4 (Homo sapiens, UniProt Q15303). Kind of assay: Selectivity interaction (Kinase panel (Invitrogen)) EUB0000639a ERBB4. As to conditions: at 200 nM.
Receptor tyrosine-protein kinase erbB-4, sequence (Q15303 whole entry): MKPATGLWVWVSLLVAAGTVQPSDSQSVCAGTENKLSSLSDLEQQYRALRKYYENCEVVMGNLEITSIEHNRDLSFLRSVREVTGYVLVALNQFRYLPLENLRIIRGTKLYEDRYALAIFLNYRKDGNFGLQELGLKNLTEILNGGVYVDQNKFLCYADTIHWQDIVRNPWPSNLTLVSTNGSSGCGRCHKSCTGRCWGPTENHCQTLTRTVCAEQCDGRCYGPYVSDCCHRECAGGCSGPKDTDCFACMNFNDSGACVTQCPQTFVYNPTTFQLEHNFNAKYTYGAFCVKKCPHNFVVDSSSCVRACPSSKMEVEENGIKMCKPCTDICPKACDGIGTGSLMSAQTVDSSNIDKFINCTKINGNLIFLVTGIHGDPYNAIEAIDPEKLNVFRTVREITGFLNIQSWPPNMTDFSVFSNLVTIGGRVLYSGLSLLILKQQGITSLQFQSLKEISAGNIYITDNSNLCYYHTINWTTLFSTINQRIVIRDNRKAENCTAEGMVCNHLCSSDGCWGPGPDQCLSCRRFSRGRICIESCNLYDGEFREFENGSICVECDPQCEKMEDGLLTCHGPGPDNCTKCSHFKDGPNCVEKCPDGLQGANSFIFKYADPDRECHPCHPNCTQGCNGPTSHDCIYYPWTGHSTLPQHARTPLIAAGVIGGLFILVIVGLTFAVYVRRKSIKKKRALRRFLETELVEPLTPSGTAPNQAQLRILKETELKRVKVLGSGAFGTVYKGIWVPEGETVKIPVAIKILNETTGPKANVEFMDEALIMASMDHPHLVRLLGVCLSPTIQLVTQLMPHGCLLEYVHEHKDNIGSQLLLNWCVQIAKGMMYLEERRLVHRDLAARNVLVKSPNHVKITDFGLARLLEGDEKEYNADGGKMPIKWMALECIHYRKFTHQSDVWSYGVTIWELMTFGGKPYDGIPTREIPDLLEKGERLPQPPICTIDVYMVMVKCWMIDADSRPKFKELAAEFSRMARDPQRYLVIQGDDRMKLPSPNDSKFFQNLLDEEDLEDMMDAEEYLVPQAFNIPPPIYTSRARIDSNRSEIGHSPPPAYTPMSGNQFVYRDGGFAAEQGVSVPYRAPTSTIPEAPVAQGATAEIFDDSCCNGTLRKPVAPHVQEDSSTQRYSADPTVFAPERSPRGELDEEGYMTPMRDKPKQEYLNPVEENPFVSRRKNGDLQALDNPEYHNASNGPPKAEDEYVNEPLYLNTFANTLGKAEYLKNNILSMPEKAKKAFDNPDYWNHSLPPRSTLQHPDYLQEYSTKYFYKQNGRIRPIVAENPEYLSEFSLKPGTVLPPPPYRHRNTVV
Assay [4] deals with Cyclin-dependent kinase 16 (Homo sapiens) (UniProt Q00536). Kind of assay: Selectivity interaction (ActivX KiNativ screen (kinase selectivity in THP-1 cell lysates)) EUB0000639a CDK16. As to conditions: lysate, at 0.01 µM. The assay is classed as subcellular.
Cyclin-dependent kinase 16 (Homo sapiens), sequence (Q00536 whole entry): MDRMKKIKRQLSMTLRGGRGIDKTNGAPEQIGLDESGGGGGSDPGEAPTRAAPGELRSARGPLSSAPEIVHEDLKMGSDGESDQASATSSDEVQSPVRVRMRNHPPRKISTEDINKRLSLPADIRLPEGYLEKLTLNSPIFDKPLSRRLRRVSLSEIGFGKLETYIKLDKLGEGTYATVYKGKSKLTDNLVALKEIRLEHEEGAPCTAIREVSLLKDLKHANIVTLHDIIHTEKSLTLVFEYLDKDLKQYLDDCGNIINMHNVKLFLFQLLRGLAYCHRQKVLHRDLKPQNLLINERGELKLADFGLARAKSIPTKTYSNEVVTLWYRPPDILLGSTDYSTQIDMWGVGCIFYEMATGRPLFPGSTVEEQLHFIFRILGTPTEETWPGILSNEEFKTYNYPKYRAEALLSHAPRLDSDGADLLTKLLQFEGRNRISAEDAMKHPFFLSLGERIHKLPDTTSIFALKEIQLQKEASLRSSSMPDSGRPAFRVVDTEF
The subject of assay [5] is Fibroblast growth factor receptor 3 (Homo sapiens), P22607 [K650E]. Kind of assay: (§1) Selectivity interaction (ProQinase) EUB0000171b FGFR3.
Assay [6] relates to Fibroblast growth factor receptor 3 (Homo sapiens), P22607 [K650M]. The description is as §1.
Fibroblast growth factor receptor 3 (Homo sapiens), P22607 [K650M], sequence (P22607 whole entry K650M): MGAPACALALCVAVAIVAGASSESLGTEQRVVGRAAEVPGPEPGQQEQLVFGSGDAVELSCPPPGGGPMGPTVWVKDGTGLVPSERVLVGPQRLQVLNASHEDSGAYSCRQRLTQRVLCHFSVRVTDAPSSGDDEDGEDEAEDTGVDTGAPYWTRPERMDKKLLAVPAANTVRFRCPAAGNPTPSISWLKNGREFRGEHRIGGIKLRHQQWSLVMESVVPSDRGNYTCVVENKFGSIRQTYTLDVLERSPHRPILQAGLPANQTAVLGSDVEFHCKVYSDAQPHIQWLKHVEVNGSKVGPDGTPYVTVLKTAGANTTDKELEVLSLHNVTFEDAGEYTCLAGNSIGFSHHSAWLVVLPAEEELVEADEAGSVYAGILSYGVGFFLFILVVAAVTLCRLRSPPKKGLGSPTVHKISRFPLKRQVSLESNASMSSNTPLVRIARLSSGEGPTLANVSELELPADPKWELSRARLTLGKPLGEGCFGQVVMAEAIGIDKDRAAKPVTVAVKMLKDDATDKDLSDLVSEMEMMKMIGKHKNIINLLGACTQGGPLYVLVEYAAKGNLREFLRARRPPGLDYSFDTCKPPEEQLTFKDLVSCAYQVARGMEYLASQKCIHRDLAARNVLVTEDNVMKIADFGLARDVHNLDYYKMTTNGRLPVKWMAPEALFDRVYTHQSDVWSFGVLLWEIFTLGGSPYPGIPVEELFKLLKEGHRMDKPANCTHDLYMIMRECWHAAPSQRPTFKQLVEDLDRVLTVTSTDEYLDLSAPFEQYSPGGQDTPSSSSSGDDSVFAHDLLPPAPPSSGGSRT
The subject of assay [7] is Fibroblast growth factor receptor 3 (Homo sapiens), P22607 [G697C]. The assay is described as §1.
Assay [8] addresses Fibroblast growth factor receptor 3 (Homo sapiens, UniProt P22607). Described as §1.
Assay [9] addresses T1, Ephrin type-A receptor 6 (Homo sapiens) (UniProt Q9UF33).
T1 sequence (whole entry): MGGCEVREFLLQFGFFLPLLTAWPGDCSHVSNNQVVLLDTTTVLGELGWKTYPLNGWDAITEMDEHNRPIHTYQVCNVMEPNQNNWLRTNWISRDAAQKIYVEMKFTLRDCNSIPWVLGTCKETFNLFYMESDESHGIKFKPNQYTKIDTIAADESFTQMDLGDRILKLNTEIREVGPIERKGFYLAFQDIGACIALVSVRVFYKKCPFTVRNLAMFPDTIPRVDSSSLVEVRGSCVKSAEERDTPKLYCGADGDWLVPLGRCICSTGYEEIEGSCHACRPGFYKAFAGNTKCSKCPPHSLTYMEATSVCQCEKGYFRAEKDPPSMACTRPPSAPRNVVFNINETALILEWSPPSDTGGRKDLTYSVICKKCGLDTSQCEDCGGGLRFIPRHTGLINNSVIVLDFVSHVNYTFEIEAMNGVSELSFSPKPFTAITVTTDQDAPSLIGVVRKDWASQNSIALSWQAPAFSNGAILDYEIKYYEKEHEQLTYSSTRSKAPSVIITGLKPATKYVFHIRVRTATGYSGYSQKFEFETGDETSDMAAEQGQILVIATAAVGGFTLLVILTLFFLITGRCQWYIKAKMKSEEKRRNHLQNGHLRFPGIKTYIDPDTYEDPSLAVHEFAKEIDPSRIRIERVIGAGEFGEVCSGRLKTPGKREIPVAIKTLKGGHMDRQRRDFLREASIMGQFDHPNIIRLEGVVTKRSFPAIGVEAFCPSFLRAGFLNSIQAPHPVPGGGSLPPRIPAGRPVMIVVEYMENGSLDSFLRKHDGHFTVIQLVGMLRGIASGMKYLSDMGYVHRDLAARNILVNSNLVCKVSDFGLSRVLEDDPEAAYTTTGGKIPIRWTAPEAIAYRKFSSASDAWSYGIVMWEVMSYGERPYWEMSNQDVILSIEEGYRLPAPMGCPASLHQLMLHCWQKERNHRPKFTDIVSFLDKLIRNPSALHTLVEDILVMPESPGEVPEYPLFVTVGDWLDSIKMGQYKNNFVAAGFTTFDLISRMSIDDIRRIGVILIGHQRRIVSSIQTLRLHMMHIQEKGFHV
Kind of assay: Selectivity interaction (Ambit KINOMEscan and KiNATiv profiling in Jurkat cells) EUB0000090b EPHA6. The assay is classed as cell-based. To be noted: at 1 µM.

Assay [10] has as its system eIF-2-alpha kinase GCN2 (Homo sapiens), Q9P2K8 [S808G]. Kind of assay: Selectivity interaction (Ambit KINOMEscan and KiNATiv profiling in Jurkat cells) EUB0000090b EIF2AK4. The assay is classed as cell-based. As to conditions: at 1 µM.
Assay [11] concerns the target T2, Dual specificity mitogen-activated protein kinase kinase 5 (Homo sapiens) (UniProt Q13163).
T2 sequence (whole entry): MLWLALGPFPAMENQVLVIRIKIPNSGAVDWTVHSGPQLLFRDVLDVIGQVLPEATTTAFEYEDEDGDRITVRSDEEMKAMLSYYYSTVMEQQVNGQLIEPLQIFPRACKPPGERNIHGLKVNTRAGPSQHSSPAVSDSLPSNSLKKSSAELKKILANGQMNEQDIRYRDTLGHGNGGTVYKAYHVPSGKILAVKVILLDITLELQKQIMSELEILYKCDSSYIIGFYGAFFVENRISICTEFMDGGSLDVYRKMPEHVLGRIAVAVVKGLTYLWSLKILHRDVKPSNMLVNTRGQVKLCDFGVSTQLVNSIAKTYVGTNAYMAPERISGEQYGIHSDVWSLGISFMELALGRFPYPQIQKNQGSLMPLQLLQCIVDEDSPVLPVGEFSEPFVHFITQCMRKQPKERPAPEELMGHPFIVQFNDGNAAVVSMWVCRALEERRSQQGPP
Kind of assay: Selectivity interaction (Kinase panel (Carna Biosciences)) EUB0001542aTs MAP2K5. As to conditions: at 1 µM.

Assay [12] has as its target Histone-lysine N-methyltransferase KMT5C (Homo sapiens) (UniProt Q86Y97). Kind of assay: Selectivity interaction (Methyltransferase screen (radiometric assays, panel of 8 PRMTs, 21 protein lysine methyltransferases, 3 DNA methyltransferases, and one RNA methyltransferase)) EUB0000272b SUV420H2.
Assay [13] concerns the target Sigma non-opioid intracellular receptor 1 (Homo sapiens) (UniProt Q99720). Kind of assay: Selectivity interaction (GPCR panel (PDSP screen)) EUB0001079a SIGMAR1. To be noted: at 10 µM.

Fibroblast growth factor receptor 3, sequence (P22607 23-806 limits assumed): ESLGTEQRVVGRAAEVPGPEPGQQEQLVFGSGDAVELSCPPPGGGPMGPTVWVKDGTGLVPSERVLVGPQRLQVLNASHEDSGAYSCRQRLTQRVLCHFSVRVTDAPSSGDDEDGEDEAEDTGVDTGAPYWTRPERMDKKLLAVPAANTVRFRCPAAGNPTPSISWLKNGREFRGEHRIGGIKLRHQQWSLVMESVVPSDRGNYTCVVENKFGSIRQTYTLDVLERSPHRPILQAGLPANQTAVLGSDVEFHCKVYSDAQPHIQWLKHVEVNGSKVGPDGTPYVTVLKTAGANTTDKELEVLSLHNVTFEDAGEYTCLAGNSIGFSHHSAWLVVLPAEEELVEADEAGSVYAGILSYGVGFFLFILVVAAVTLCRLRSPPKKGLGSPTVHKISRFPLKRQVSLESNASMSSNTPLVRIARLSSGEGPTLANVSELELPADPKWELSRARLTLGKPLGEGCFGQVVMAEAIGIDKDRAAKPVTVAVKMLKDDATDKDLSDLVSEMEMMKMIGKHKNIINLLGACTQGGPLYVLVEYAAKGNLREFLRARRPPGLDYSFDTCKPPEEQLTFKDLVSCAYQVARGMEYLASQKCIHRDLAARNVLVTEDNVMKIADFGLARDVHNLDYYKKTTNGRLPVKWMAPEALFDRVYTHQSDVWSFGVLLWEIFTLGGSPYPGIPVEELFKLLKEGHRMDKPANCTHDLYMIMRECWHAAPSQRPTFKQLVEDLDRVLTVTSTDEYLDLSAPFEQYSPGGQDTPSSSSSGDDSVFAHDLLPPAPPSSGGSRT
Fibroblast growth factor receptor 3 (Homo sapiens), P22607 [G697C], sequence (P22607 whole entry G697C): as the sequence (P22607 whole entry K650M) above, with M650K, G697C counted along it
Fibroblast growth factor receptor 3 (Homo sapiens), P22607 [K650E], sequence (P22607 whole entry K650E): as the sequence (P22607 whole entry K650M) above, with M650E counted along it
Histone-lysine N-methyltransferase KMT5C (Homo sapiens), sequence (Q86Y97 whole entry, looked up): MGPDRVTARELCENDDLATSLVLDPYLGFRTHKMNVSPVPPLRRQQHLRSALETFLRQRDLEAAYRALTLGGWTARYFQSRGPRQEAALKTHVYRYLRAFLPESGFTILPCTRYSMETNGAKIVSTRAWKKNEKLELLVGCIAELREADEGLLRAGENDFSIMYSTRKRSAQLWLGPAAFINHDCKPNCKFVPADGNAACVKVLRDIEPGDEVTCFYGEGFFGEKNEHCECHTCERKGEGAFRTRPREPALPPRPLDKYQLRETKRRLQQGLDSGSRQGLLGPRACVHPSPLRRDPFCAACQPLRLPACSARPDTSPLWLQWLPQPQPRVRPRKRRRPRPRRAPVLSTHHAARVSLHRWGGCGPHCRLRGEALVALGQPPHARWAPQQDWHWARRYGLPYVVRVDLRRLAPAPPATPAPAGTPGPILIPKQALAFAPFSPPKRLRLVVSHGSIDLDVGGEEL
Sigma non-opioid intracellular receptor 1 (Homo sapiens), sequence (Q99720 whole entry): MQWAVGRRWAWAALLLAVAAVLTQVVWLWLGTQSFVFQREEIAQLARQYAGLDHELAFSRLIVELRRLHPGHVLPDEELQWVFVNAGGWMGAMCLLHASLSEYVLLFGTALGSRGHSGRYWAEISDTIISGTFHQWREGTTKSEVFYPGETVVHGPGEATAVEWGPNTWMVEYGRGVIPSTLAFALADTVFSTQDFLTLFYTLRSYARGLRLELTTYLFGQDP

In [1], `CCN(CC)CCCCNc1ncc2cc(-c3cc(OC)cc(OC)c3)c(NC(=O)NC(C)(C)C)nc2n1` registered a % of control of 100%.
In the case of `CC[C@@H]1[C@H](F)C(=O)N[C@@H]1COc1nccc2cc(C(N)=O)c(OC)cc12` [ZIMLOVISERTIB], the % of inhibition in assay [2] (at 0.01 µM) was 0.3%; in assay [2] (at 0.04 µM) it was 0.4%; in [2] (at 0.2 µM), 5%; in [2] (at 1 µM), 5.6%; in assay [2] (at 5 µM), -4.9%; in assay [3], 8.76%. Also, the % of inhibition in [4] is -0.6%.
As for `C=CC(=O)Nc1cccc(C(=O)Nc2ccc(Nc3cc(-c4[nH]c(SC)nc4C)ccn3)cc2)c1`, the % of control in assay [5] (at 1 µM) is 104%; in assay [5] (at 5 µM), 79%; in assay [6] (at 1 µM) it was 97%; in assay [6] (at 5 µM), 72%; in [7] (at 1 µM), 103%; in assay [7] (at 5 µM), 83%. In addition, the % of control turned out to be 98% in [8] (at 1 µM) and 78% in [8] (at 5 µM).
With `CN(C)C/C=C/C(=O)Nc1ccc(C(=O)N2CCCC(Nc3ncc(Cl)c(-c4c[nH]c5ccccc45)n3)C2)cc1` (configuration not stated), the % of control in assay [9] was determined as 93%; in assay [10] it was 64%.
For the compound `Cn1cc(Nc2nccc(N3CC4CCC(C3)N4C(=O)[C@@H]3CC3(F)F)n2)cn1`, in [11], the % of inhibition worked out at 70%.
For the compound `Cc1cc(C)cc([C@H]2c3cc(C)ccc3NC(=O)CN2C(=O)c2ccc(Br)s2)c1`, the % of activity in assay [12] (at 1 µM) was 101%; in assay [12] (at 10 µM), 102%.
Consider `Nc1cnc(N2CCc3cc(S(=O)(=O)Nc4c(F)cc(Cl)cc4F)cc(N4CCCC4=O)c32)nc1` [TP-020n], for which the % of inhibition in assay [13] is -14.4%.
